According to EP0394553A2, “Use of fluorine containing pyridone carboxylic acid derivatives for preparing a medicament for the treatment of HIV infections” (DAIICHI PHARMACEUTICAL CO., LTD., priority 1989, dated 1990):
Where two headings read alike, the source gives them in different places.

Legend:
HIV (LAV 1) = experiment: microbe, parasite or virus in culture; settings: for viability at 1 µg/mL / viability at 2.5 µg/mL / viability at 5 µg/mL / viability at 10 µg/mL: Human immunodeficiency virus 1, CCRF-CEM
Outline: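 CEM cells were infected with HIV LAV 1 at MOI 0.05 and cultured with test substance at 10, 5, 2.5 or 1 mcg/ml, with medium exchanged periodically up to 30 days. Viable cell count and percentage were measured by trypan blue, and antigen-positive cells by immunofluorescence with anti-HIV antiserum, at 4–30 days. Values are means of two wells.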

in vivo = settings: mouse, iv
[1] = 1 mcg/ml, 4-day addition, after 4 days
[2] = 1 mcg/ml, 4-day addition, after 7 days
[3] = 1 mcg/ml, 4-day addition, after 10 days
[4] = 1 mcg/ml, 4-day addition, after 30 days
[5] = 1 mcg/ml, continuous addition, after 4 days
[6] = 1 mcg/ml, continuous addition, after 7 days
[7] = 1 mcg/ml, continuous addition, after 10 days
[8] = 1 mcg/ml, continuous addition, after 30 days
[9] = 2.5 mcg/ml, 4-day addition, after 4 days
[10] = 2.5 mcg/ml, 4-day addition, after 7 days
[11] = 2.5 mcg/ml, 4-day addition, after 10 days
[12] = 2.5 mcg/ml, 4-day addition, after 20 days
[13] = 2.5 mcg/ml, 4-day addition, after 30 days
[14] = 2.5 mcg/ml, continuous addition, after 4 days
[15] = 2.5 mcg/ml, continuous addition, after 7 days
[16] = 2.5 mcg/ml, continuous addition, after 10 days
[17] = 2.5 mcg/ml, continuous addition, after 20 days
[18] = 2.5 mcg/ml, continuous addition, after 30 days
[19] = 5 mcg/ml, 4-day addition, after 4 days
[20] = 5 mcg/ml, 4-day addition, after 7 days
[21] = 5 mcg/ml, 4-day addition, after 10 days
[22] = 5 mcg/ml, 4-day addition, after 20 days
[23] = 5 mcg/ml, 4-day addition, after 30 days
[24] = 5 mcg/ml, continuous addition, after 4 days
[25] = 5 mcg/ml, continuous addition, after 7 days
[26] = 5 mcg/ml, continuous addition, after 10 days
[27] = 5 mcg/ml, continuous addition, after 20 days
[28] = 5 mcg/ml, continuous addition, after 30 days
[29] = 10 mcg/ml, 4-day addition, after 4 days
[30] = 10 mcg/ml, 4-day addition, after 7 days
[31] = 10 mcg/ml, 4-day addition, after 10 days
[32] = 10 mcg/ml, 4-day addition, after 20 days
[33] = 10 mcg/ml, 4-day addition, after 30 days
[34] = 10 mcg/ml, continuous addition, after 4 days
[35] = 10 mcg/ml, continuous addition, after 7 days
[36] = 10 mcg/ml, continuous addition, after 10 days
[37] = 10 mcg/ml, continuous addition, after 20 days
[38] = 10 mcg/ml, continuous addition, after 30 days

## C[C@H]1COc2c(N3CCN(C)CC3)c(F)cc3c(=O)c(C(=O)O)cn1c23 [DR-3355, (-)-(S)-9-fluoro-2,3-dihydro-3-methyl-10-(4-methyl-1-piperazinyl)-7-oxo-7H-pyrido[1,2,3-de][1,4]benzoxazine-6-carboxylic acid hemihydrate]
HIV (LAV 1); [1]
  Viable cell count: 220 × 10⁴ cells/ml
  Viral antigen-positive cell percentage: 91%
HIV (LAV 1); [2]
  Viable cell count: 71 × 10⁴ cells/ml
  Viral antigen-positive cell percentage: 61%
HIV (LAV 1); [3]
  Viable cell count: 54 × 10⁴ cells/ml
  Viral antigen-positive cell percentage: 56%
HIV (LAV 1); 1 mcg/ml, 4-day addition, after 20 days
  Viable cell count: 3 × 10⁴ cells/ml
HIV (LAV 1); [4]
  Viable cell count: 68 × 10⁴ cells/ml
  Viral antigen-positive cell percentage: 16%
HIV (LAV 1); [5]
  Viable cell count: 190 × 10⁴ cells/ml
  Viral antigen-positive cell percentage: 88%
HIV (LAV 1); [6]
  Viable cell count: 65 × 10⁴ cells/ml
  Viral antigen-positive cell percentage: 52%
HIV (LAV 1); [7]
  Viable cell count: 110 × 10⁴ cells/ml
  Viral antigen-positive cell percentage: 43%
HIV (LAV 1); 1 mcg/ml, continuous addition, after 20 days
  Viable cell count: 11 × 10⁴ cells/ml
HIV (LAV 1); [8]
  Viable cell count: 360 × 10⁴ cells/ml
  Viral antigen-positive cell percentage: 15%
HIV (LAV 1); [9]
  Viable cell count: 190 × 10⁴ cells/ml
  Viral antigen-positive cell percentage: 88%
HIV (LAV 1); [10]
  Viable cell count: 76 × 10⁴ cells/ml
  Viral antigen-positive cell percentage: 53%
HIV (LAV 1); [11]
  Viable cell count: 280 × 10⁴ cells/ml
  Viral antigen-positive cell percentage: 44%
HIV (LAV 1); [12]
  Viable cell count: 230 × 10⁴ cells/ml
  Viral antigen-positive cell percentage: 30%
HIV (LAV 1); [13]
  Viable cell count: 130 × 10⁴ cells/ml
  Viral antigen-positive cell percentage: 10%
HIV (LAV 1); [14]
  Viable cell count: 210 × 10⁴ cells/ml
  Viral antigen-positive cell percentage: 87%
HIV (LAV 1); [15]
  Viable cell count: 53 × 10⁴ cells/ml
  Viral antigen-positive cell percentage: 51%
HIV (LAV 1); [16]
  Viable cell count: 290 × 10⁴ cells/ml
  Viral antigen-positive cell percentage: 25%
HIV (LAV 1); [17]
  Viable cell count: 390 × 10⁴ cells/ml
  Viral antigen-positive cell percentage: 35%
HIV (LAV 1); [18]
  Viable cell count: 270 × 10⁴ cells/ml
  Viral antigen-positive cell percentage: 11%
HIV (LAV 1); [19]
  Viable cell count: 190 × 10⁴ cells/ml
  Viral antigen-positive cell percentage: 90%
HIV (LAV 1); [20]
  Viable cell count: 78 × 10⁴ cells/ml
  Viral antigen-positive cell percentage: 59%
HIV (LAV 1); [21]
  Viable cell count: 320 × 10⁴ cells/ml
  Viral antigen-positive cell percentage: 33%
HIV (LAV 1); [22]
  Viable cell count: 190 × 10⁴ cells/ml
  Viral antigen-positive cell percentage: 36%
HIV (LAV 1); [23]
  Viable cell count: 360 × 10⁴ cells/ml
  Viral antigen-positive cell percentage: 2%
HIV (LAV 1); [24]
  Viable cell count: 160 × 10⁴ cells/ml
  Viral antigen-positive cell percentage: 87%
HIV (LAV 1); [25]
  Viable cell count: 51 × 10⁴ cells/ml
  Viral antigen-positive cell percentage: 53%
HIV (LAV 1); [26]
  Viable cell count: 260 × 10⁴ cells/ml
  Viral antigen-positive cell percentage: 37%
HIV (LAV 1); [27]
  Viable cell count: 320 × 10⁴ cells/ml
  Viral antigen-positive cell percentage: 29%
HIV (LAV 1); [28]
  Viable cell count: 210 × 10⁴ cells/ml
  Viral antigen-positive cell percentage: 4%
HIV (LAV 1); [29]
  Viable cell count: 170 × 10⁴ cells/ml
  Viral antigen-positive cell percentage: 88%
HIV (LAV 1); [30]
  Viable cell count: 50 × 10⁴ cells/ml
  Viral antigen-positive cell percentage: 57%
HIV (LAV 1); [31]
  Viable cell count: 280 × 10⁴ cells/ml
  Viral antigen-positive cell percentage: 31%
HIV (LAV 1); [32]
  Viable cell count: 230 × 10⁴ cells/ml
  Viral antigen-positive cell percentage: 19%
HIV (LAV 1); [33]
  Viable cell count: 320 × 10⁴ cells/ml
  Viral antigen-positive cell percentage: ≦1%
HIV (LAV 1); [34]
  Viable cell count: 160 × 10⁴ cells/ml
  Viral antigen-positive cell percentage: 89%
HIV (LAV 1); [35]
  Viable cell count: 43 × 10⁴ cells/ml
  Viral antigen-positive cell percentage: 55%
HIV (LAV 1); [36]
  Viable cell count: 220 × 10⁴ cells/ml
  Viral antigen-positive cell percentage: 31%
HIV (LAV 1); [37]
  Viable cell count: 260 × 10⁴ cells/ml
  Viral antigen-positive cell percentage: 21%
HIV (LAV 1); [38]
  Viable cell count: 260 × 10⁴ cells/ml
  Viral antigen-positive cell percentage: 4%
HIV (LAV 1); 96 h, read-out: Viable cell percentage, 1 mcg/ml, 4-day addition, after 4 days
  viability at 1 µg/mL: 95%
HIV (LAV 1); 96 h, read-out: Viable cell percentage, 1 mcg/ml, continuous addition, after 4 days
  viability at 1 µg/mL: 94%
HIV (LAV 1); 96 h, read-out: Viable cell percentage, 2.5 mcg/ml, 4-day addition, after 4 days
  viability at 2.5 µg/mL: 94%
HIV (LAV 1); 96 h, read-out: Viable cell percentage, 2.5 mcg/ml, continuous addition, after 4 days
  viability at 2.5 µg/mL: 94%
HIV (LAV 1); 96 h, read-out: Viable cell percentage, 5 mcg/ml, 4-day addition, after 4 days
  viability at 5 µg/mL: 91%
HIV (LAV 1); 96 h, read-out: Viable cell percentage, 5 mcg/ml, continuous addition, after 4 days
  viability at 5 µg/mL: 89%
HIV (LAV 1); 96 h, read-out: Viable cell percentage, 10 mcg/ml, 4-day addition, after 4 days
  viability at 10 µg/mL: 92%
HIV (LAV 1); 96 h, read-out: Viable cell percentage, 10 mcg/ml, continuous addition, after 4 days
  viability at 10 µg/mL: 91%
HIV (LAV 1); 168 h, read-out: Viable cell percentage, 1 mcg/ml, continuous addition, after 7 days
  viability at 1 µg/mL: 69%
HIV (LAV 1); 168 h, read-out: Viable cell percentage, 2.5 mcg/ml, continuous addition, after 7 days
  viability at 2.5 µg/mL: 68%
HIV (LAV 1); 168 h, read-out: Viable cell percentage, 5 mcg/ml, continuous addition, after 7 days
  viability at 5 µg/mL: 66%
HIV (LAV 1); 168 h, read-out: Viable cell percentage, 10 mcg/ml, continuous addition, after 7 days
  viability at 10 µg/mL: 75%
HIV (LAV 1); 240 h, read-out: Viable cell percentage, 1 mcg/ml, continuous addition, after 10 days
  viability at 1 µg/mL: 61%
HIV (LAV 1); 240 h, read-out: Viable cell percentage, 2.5 mcg/ml, continuous addition, after 10 days
  viability at 2.5 µg/mL: 94%
HIV (LAV 1); 240 h, read-out: Viable cell percentage, 5 mcg/ml, continuous addition, after 10 days
  viability at 5 µg/mL: 95%
HIV (LAV 1); 240 h, read-out: Viable cell percentage, 10 mcg/ml, continuous addition, after 10 days
  viability at 10 µg/mL: 92%
HIV (LAV 1); 480 h, read-out: Viable cell percentage, 1 mcg/ml, continuous addition, after 20 days
  viability at 1 µg/mL: 50%
HIV (LAV 1); 480 h, read-out: Viable cell percentage, 2.5 mcg/ml, continuous addition, after 20 days
  viability at 2.5 µg/mL: 95%
HIV (LAV 1); 480 h, read-out: Viable cell percentage, 5 mcg/ml, continuous addition, after 20 days
  viability at 5 µg/mL: 89%
HIV (LAV 1); 480 h, read-out: Viable cell percentage, 10 mcg/ml, continuous addition, after 20 days
  viability at 10 µg/mL: 87%
HIV (LAV 1); read-out: Viable cell percentage, 1 mcg/ml, 4-day addition, after 7 days
  viability at 1 µg/mL: 70%
HIV (LAV 1); read-out: Viable cell percentage, 1 mcg/ml, 4-day addition, after 10 days
  viability at 1 µg/mL: 61%
HIV (LAV 1); read-out: Viable cell percentage, 1 mcg/ml, 4-day addition, after 20 days
  viability at 1 µg/mL: 20%
HIV (LAV 1); read-out: Viable cell percentage, 1 mcg/ml, 4-day addition, after 30 days
  viability at 1 µg/mL: 98%
HIV (LAV 1); read-out: Viable cell percentage, 1 mcg/ml, continuous addition, after 30 days
  viability at 1 µg/mL: 98%
HIV (LAV 1); read-out: Viable cell percentage, 2.5 mcg/ml, 4-day addition, after 7 days
  viability at 2.5 µg/mL: 80%
HIV (LAV 1); read-out: Viable cell percentage, 2.5 mcg/ml, 4-day addition, after 10 days
  viability at 2.5 µg/mL: 92%
HIV (LAV 1); read-out: Viable cell percentage, 2.5 mcg/ml, 4-day addition, after 20 days
  viability at 2.5 µg/mL: 87%
HIV (LAV 1); read-out: Viable cell percentage, 2.5 mcg/ml, 4-day addition, after 30 days
  viability at 2.5 µg/mL: 83%
HIV (LAV 1); read-out: Viable cell percentage, 2.5 mcg/ml, continuous addition, after 30 days
  viability at 2.5 µg/mL: 88%
HIV (LAV 1); read-out: Viable cell percentage, 5 mcg/ml, 4-day addition, after 7 days
  viability at 5 µg/mL: 76%
HIV (LAV 1); read-out: Viable cell percentage, 5 mcg/ml, 4-day addition, after 10 days
  viability at 5 µg/mL: 95%
HIV (LAV 1); read-out: Viable cell percentage, 5 mcg/ml, 4-day addition, after 20 days
  viability at 5 µg/mL: 87%
HIV (LAV 1); read-out: Viable cell percentage, 5 mcg/ml, 4-day addition, after 30 days
  viability at 5 µg/mL: 92%
HIV (LAV 1); read-out: Viable cell percentage, 5 mcg/ml, continuous addition, after 30 days
  viability at 5 µg/mL: 75%
HIV (LAV 1); read-out: Viable cell percentage, 10 mcg/ml, 4-day addition, after 7 days
  viability at 10 µg/mL: 68%
HIV (LAV 1); read-out: Viable cell percentage, 10 mcg/ml, 4-day addition, after 10 days
  viability at 10 µg/mL: 94%
HIV (LAV 1); read-out: Viable cell percentage, 10 mcg/ml, 4-day addition, after 20 days
  viability at 10 µg/mL: 85%
HIV (LAV 1); read-out: Viable cell percentage, 10 mcg/ml, 4-day addition, after 30 days
  viability at 10 µg/mL: 92%
HIV (LAV 1); read-out: Viable cell percentage, 10 mcg/ml, continuous addition, after 30 days
  viability at 10 µg/mL: 83%
In vivo
  LD50: ≥ 200 mg/kg
